Source: patent US12459974B2, “Bicyclic peptide ligands specific for Nectin-4” (priority 2018, dated 2025)
*1 amine or outer side, *2 acyl side, *3 side chain or, on linkers, in order; H or OH if unused. Where a SMILES comes first, the peptide text is derived from it. Bridges are numbered along the chain shown (N, C = ends). Roman numbers before positions name the chains, in order. [ ]: non-standard residue; d: D form. The star is where a group is joined. ξ: configuration not given here. TATA = O=C(CC[*:1])N1CN(C(=O)CC[*:2])CN(C(=O)CC[*:3])C1; Dolaproine = CO[C@@H]([C@@H]1CCCN1)[C@@H](C)C(=O)O; X1 = CC[C@H](C)C(C(CC(=O)[*:2])OC)N(C)[*:1]; 1Nal = N[C@@H](Cc1cccc2ccccc12)C(=O)O; X3 = O=C(CCCC(=O)[*:2])NCCC(=O)[*:1]; PABC = O=C(OCc1ccc(N[*:1])cc1)[*:2]; Hyp = O=C(O)[C@@H]1C[C@@H](O)CN1; hArg = N=C(N)NCCCC[C@H](N)C(=O)O; Cit = NC(=O)NCCC[C@H](N)C(=O)O; X2 = CC(N*)[C@@H](O)c1ccccc1; ξNMeV = CNC(C(=O)O)C(C)C; ξV = CC(C)C(N)C(=O)O; Sar = CNCC(=O)O

Legend:
HT-1376 xenograft = experiment: Example 2: in vivo efficacy in HT-1376 xenograft (bladder cancer model) in CB17-SCID mice
Experimental: (§1) The major endpoint was to see if the tumor growth could be delayed or mice could be cured. Tumor volume was measured three times weekly in two dimensions using a caliper, and the volume was expressed in mm^3 using the formula: V=0.5 a×b^2 where a and b are the long and short diameters of the tumor, respectively. The tumor size was then used for calculations of T/C value. The T/C value (in percent) is an indication of antitumor effectiveness; T and C are the mean volumes of the treated and control groups, respectively, on a given day. TGI was calculated for each group using the formula: TGI (%)=[1−(Ti−T0)/(Vi−V0)]×100; Ti is the average tumor volume of a treatment group on a given day, T0 is the average tumor volume of the treatment group on the day of treatment start, Vi is the average tumor volume of the vehicle control group on the same day with Ti, and V0 is the average tumor volume of the vehicle group on the day of treatment start.
A one-way ANOVA was performed to compare tumor volume among groups, and when a significant F-statistics (a ratio of treatment variance to the error variance) was obtained, comparisons between groups were carried out with Games-Howell test. […] P<0.05 was considered to be statistically significant.
• Species: Mus Musculus • Strain: CB17-SCID • Age: 6-8 weeks • Sex: female • Body weight: 18-22 g • Number of animals: 21-41 mice plus spare • Animal supplier: Shanghai LC Laboratory Animal Co., LTD.
The HT-1376 tumor cells were maintained in vitro as a monolayer culture in EMEM medium supplemented with 10% heat inactivated fetal bovine serum at 37° C. in an atmosphere of 5% CO2 in air. The tumor cells were routinely subcultured twice weekly by trypsin-EDTA treatment.
Each mouse was inoculated subcutaneously at the right flank with HT-1376 tumor cells (5×10^6) in 0.2 ml of PBS with matrigel (1:1) for tumor development. Animals were randomized when the average tumor volume reached 153-164 mm^3.
Tumor growth inhibition rate for Test articles in the HT-1376 xenograft model was calculated based on tumor volume measurements at day 21 after the start of treatment.

NCI-H292 xenograft = experiment: Example 1: in vivo efficacy in NCI-H292 xenograft (NSCLC model) in BALB/c nude mice; set-up: species or system Mus Musculus
Experimental: as §1
A one-way ANOVA was performed to compare tumor volume among groups, and when a significant F-statistics (a ratio of treatment variance to the error variance) was obtained, comparisons between groups were carried out with Games-Howell test. All data were analyzed using GraphPad Prism 5.0. P<0.05 was considered to be statistically significant.
The NCI-H292 tumor cells will be maintained in medium supplemented with 10% heat inactivated fetal bovine serum at 37° C. in an atmosphere of 5% CO2 in air. The tumor cells will be routinely subcultured twice weekly. The cells growing in an exponential growth phase will be harvested and counted for tumor inoculation.
Each mouse will be inoculated subcutaneously at the right flank with NCI-H292 tumor cells (10×10^6) in 0.2 ml of PBS for tumor development. The animals will be randomized and treatment will be started when the average tumor volume reaches approximately 158-406 mm^3.

[1] = 3 mg/kg biw, day 21, groups 8-17
[2] = 3 mg/kg qw, day 21, groups 8-17
[3] = 5 mg/kg qw, day 21, groups 8-17

Q: What does the source list for CC[C@H](C)C(C(CC(=O)N1CCC[C@H]1[C@H](OC)[C@@H](C)C(=O)NC(C)[C@@H](O)c1ccccc1)OC)N(C)C(=O)[C@@H](NC(=O)C(C(C)C)N(C)C(=O)OCc1ccc(NC(=O)[C@H](CCCNC(N)=O)NC(=O)C(NC(=O)CCCC(=O)NCCC(=O)N(C)CC(=O)N(C)CC(=O)N(C)CC(=O)N(C)CC(=O)N(C)CC(=O)N(C)CC(=O)N(C)CC(=O)N(C)CC(=O)N(C)CC(=O)N(C)CC(=O)N[C@H]2CSCCC(=O)N3CN4CN(C3)C(=O)CCSC[C@H](NC(=O)[C@@H](CC(=O)O)NC(=O)[C@H](Cc3cccc5ccccc35)NC(=O)[C@@H]3CCCN3C2=O)C(=O)N[C@@H](CCSC)C(=O)N[C@@H](CCCCNC(=N)N)C(=O)N[C@@H](CC(=O)O)C(=O)N[C@@H](Cc2c[nH]c3ccccc23)C(=O)N[C@@H](CO)C(=O)N[C@@H]([C@@H](C)O)C(=O)N2CCC[C@H]2C(=O)N2C[C@H](O)C[C@H]2C(=O)N[C@@H](Cc2c[nH]c3ccccc23)C(=O)N[C@H](C(N)=O)CSCCC4=O)C(C)C)cc1)C(C)C (stereo partly drawn) [BCY8245, MMAE-PABC-Cit-Val-Glutaryl-BCY8234] (I: [Sar][Sar][Sar][Sar][Sar][Sar][Sar][Sar][Sar][Sar]CP[1Nal][dD]CM[hArg]DWSTP[Hyp]WC-NH2 / II: [ξV][Cit][PABC][ξNMeV]V[X1][Dolaproine]-X2; linker I:11-I:15-I:25 via TATA; linker I:N-II:N via X3)?
A: antitumor activity (in words) (HT-1376 xenograft; 1 mg/kg): slight antitumor activity; TGI (HT-1376 xenograft; [1]): 72.3%; Tumor volume (TV) (HT-1376 xenograft; [1]): 407 mm^3; TGI (HT-1376 xenograft; [2]): 50.9%; Tumor volume (TV) (HT-1376 xenograft; [2]): 603 mm^3; TGI (HT-1376 xenograft; [3]): 66.0%; Tumor volume (TV) (HT-1376 xenograft; [3]): 465 mm^3; Tumor volume (HT-1376 xenograft; 1/3 mpk, qw, iv (1 mg/kg first week, 3 mg/kg following 2 weeks), day 0 after start of treatment (Table 14)): 164 ± 16 mm^3; Tumor volume (HT-1376 xenograft; 1/3 mpk, qw, iv (1 mg/kg first week, 3 mg/kg following 2 weeks), day 2 (Table 14)): 184 ± 12 mm^3; Tumor volume (HT-1376 xenograft; 1/3 mpk, qw, iv (1 mg/kg first week, 3 mg/kg following 2 weeks), day 4 (Table 14)): 206 ± 14 mm^3; Tumor volume (HT-1376 xenograft; 1/3 mpk, qw, iv (1 mg/kg first week, 3 mg/kg following 2 weeks), day 7 (Table 14)): 265 ± 21 mm^3; Tumor volume (HT-1376 xenograft; 1/3 mpk, qw, iv (1 mg/kg first week, 3 mg/kg following 2 weeks), day 9 (Table 14)): 291 ± 10 mm^3; Tumor volume (HT-1376 xenograft; 1/3 mpk, qw, iv (1 mg/kg first week, 3 mg/kg following 2 weeks), day 11 (Table 14)): 281 ± 28 mm^3; Tumor volume (HT-1376 xenograft; 1/3 mpk, qw, iv (1 mg/kg first week, 3 mg/kg following 2 weeks), day 14 (Table 14)): 335 ± 16 mm^3; Tumor volume (HT-1376 xenograft; 1/3 mpk, qw, iv (1 mg/kg first week, 3 mg/kg following 2 weeks), day 16 (Table 14)): 354 ± 11 mm^3; Tumor volume (HT-1376 xenograft; 1/3 mpk, qw, iv (1 mg/kg first week, 3 mg/kg following 2 weeks), day 18 (Table 14)): 309 ± 19 mm^3; Tumor volume (HT-1376 xenograft; 1/3 mpk, qw, iv (1 mg/kg first week, 3 mg/kg following 2 weeks), day 21 (Table 14)): 347 ± 14 mm^3; T/C (HT-1376 xenograft; 3 mpk, biw (Table 17)): 38.1%; TGI (HT-1376 xenograft; 3 mpk, biw (Table 17)): 72.3%; Tumor volume (HT-1376 xenograft; 3 mpk, biw, iv, day 0 after start of treatment (Table 15)): 154 ± 30 mm^3; Tumor volume (HT-1376 xenograft; 3 mpk, biw, iv, day 2 (Table 15)): 248 ± 58 mm^3; Tumor volume (HT-1376 xenograft; 3 mpk, biw, iv, day 5 (Table 15)): 203 ± 15 mm^3; Tumor volume (HT-1376 xenograft; 3 mpk, biw, iv, day 7 (Table 15)): 273 ± 45 mm^3; Tumor volume (HT-1376 xenograft; 3 mpk, biw, iv, day 9 (Table 15)): 356 ± 50 mm^3; Tumor volume (HT-1376 xenograft; 3 mpk, biw, iv, day 12 (Table 15)): 391 ± 53 mm^3; Tumor volume (HT-1376 xenograft; 3 mpk, biw, iv, day 14 (Table 15)): 407 ± 53 mm^3; Tumor volume (HT-1376 xenograft; 3 mpk, biw, day 14 values of Table 15, Mean ± SEM (Table 17)): 407 ± 53 mm^3; T/C (HT-1376 xenograft; 3 mpk, qw (Table 17)): 56.4%; TGI (HT-1376 xenograft; 3 mpk, qw (Table 17)): 50.9%; Tumor volume (HT-1376 xenograft; 3 mpk, qw, iv, day 0 after start of treatment (Table 15, groups 8-17)): 153 ± 26 mm^3; Tumor volume (HT-1376 xenograft; 3 mpk, qw, iv, day 2 (Table 15)): 254 ± 53 mm^3; Tumor volume (HT-1376 xenograft; 3 mpk, qw, iv, day 5 (Table 15)): 298 ± 69 mm^3; Tumor volume (HT-1376 xenograft; 3 mpk, qw, iv, day 7 (Table 15)): 398 ± 61 mm^3; Tumor volume (HT-1376 xenograft; 3 mpk, qw, iv, day 9 (Table 15)): 468 ± 73 mm^3; Tumor volume (HT-1376 xenograft; 3 mpk, qw, iv, day 12 (Table 15)): 502 ± 67 mm^3; Tumor volume (HT-1376 xenograft; 3 mpk, qw, iv, day 14 (Table 15)): 603 ± 76 mm^3; Tumor volume (HT-1376 xenograft; 3 mpk, qw, day 14 values of Table 15, Mean ± SEM (Table 17)): 603 ± 76 mm^3; T/C (HT-1376 xenograft; 3 mpk, qw, day 21 (Table 16)): 39.2%; TGI (HT-1376 xenograft; 3 mpk, qw, day 21 (Table 16)): 74.5%; Tumor volume (HT-1376 xenograft; 3 mpk, qw, day 21, Mean ± SEM (Table 16)): 347 ± 14 mm^3; T/C (HT-1376 xenograft; 5 mpk, qw (Table 17)): 43.5%; TGI (HT-1376 xenograft; 5 mpk, qw (Table 17)): 66.0%; Tumor volume (HT-1376 xenograft; 5 mpk, qw, iv, day 0 after start of treatment (Table 15)): 153 ± 15 mm^3; Tumor volume (HT-1376 xenograft; 5 mpk, qw, iv, day 2 (Table 15)): 237 ± 41 mm^3; Tumor volume (HT-1376 xenograft; 5 mpk, qw, iv, day 5 (Table 15)): 228 ± 36 mm^3; Tumor volume (HT-1376 xenograft; 5 mpk, qw, iv, day 7 (Table 15)): 317 ± 31 mm^3; Tumor volume (HT-1376 xenograft; 5 mpk, qw, iv, day 9 (Table 15)): 394 ± 20 mm^3; Tumor volume (HT-1376 xenograft; 5 mpk, qw, iv, day 12 (Table 15)): 438 ± 31 mm^3; Tumor volume (HT-1376 xenograft; 5 mpk, qw, iv, day 14 (Table 15)): 465 ± 33 mm^3; Tumor volume (HT-1376 xenograft; 5 mpk, qw, day 14 values of Table 15, Mean ± SEM (Table 17)): 465 ± 33 mm^3; efficacy (in words) (HT-1376 xenograft; after increasing dosage to 3 mg/kg from day 7): better efficacy; anti-tumour activity (in words) (HT-1376 xenograft; mouse, in vivo): good anti-tumour activity; antitumor activity (in words) (NCI-H292 xenograft; 1 mg/kg qw): didn't produce significant antitumor activity; Tumor volume (NCI-H292 xenograft; 1/3/5 mpk qw iv, day 0): 404 ± 65 mm^3; Tumor volume (NCI-H292 xenograft; 1/3/5 mpk qw iv, day 2): 391 ± 42 mm^3; Tumor volume (NCI-H292 xenograft; 1/3/5 mpk qw iv, day 4): 542 ± 14 mm^3; Tumor volume (NCI-H292 xenograft; 1/3/5 mpk qw iv, day 7): 721 ± 136 mm^3; Tumor volume (NCI-H292 xenograft; 1/3/5 mpk qw iv, day 9): 762 ± 115 mm^3; Tumor volume (NCI-H292 xenograft; 1/3/5 mpk qw iv, day 11): 607 ± 95 mm^3; Tumor volume (NCI-H292 xenograft; 1/3/5 mpk qw iv, day 14): 614 ± 89 mm^3; Tumor volume (NCI-H292 xenograft; 1/3/5 mpk qw iv, day 16): 626 ± 93 mm^3; Tumor volume (NCI-H292 xenograft; 1/3/5 mpk qw iv, day 18): 611 ± 93 mm^3; T/C (NCI-H292 xenograft; 1/3/5 mpk qw iv, day 21): 30.4%; TGI (NCI-H292 xenograft; 1/3/5 mpk qw iv, day 21): 85.7%; Tumor volume (NCI-H292 xenograft; 1/3/5 mpk qw iv, day 21): 654 ± 152 mm^3; Tumor volume (NCI-H292 xenograft; 1/3/5 mpk qw iv, day 23): 732 ± 139 mm^3; Tumor volume (NCI-H292 xenograft; 1/3/5 mpk qw iv, day 25): 755 ± 132 mm^3; Tumor volume (NCI-H292 xenograft; 1/3/5 mpk qw iv, day 28): 713 ± 114 mm^3; Tumor volume (NCI-H292 xenograft; 1/3/5 mpk qw iv, day 30): 762 ± 165 mm^3; Tumor volume (NCI-H292 xenograft; 1/3/5 mpk qw iv, day 32): 968 ± 290 mm^3; Tumor volume (NCI-H292 xenograft; 1/3/5 mpk qw iv, day 35): 1119 ± 216 mm^3
